Columns and labels:
Assay in all cases: relative viability (nuclei count vs DMSO), 5 days (fraction); higher = more cells survive
NCI-H460 = test system: NCI-H460
In short: (§1)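 Each reported value is a median over duplicate plates. It expresses relative viability: treated-well nuclei count divided by vehicle-well nuclei count. Lung cancer cell lines in 1536-well plates were dosed by pin tool a day after seeding, alone with one drug or with a fixed anchor-drug dose plus five library-drug doses (not always all listed) in √10 steps, and nuclei were counted after 5 days.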

201T = test system: 201T
In short: as §1

LCLC-103H = test system: LCLC-103H
In short: as §1

NCI-H2347 = test system: NCI-H2347
In short: as §1

LC-2-ad = test system: LC-2-ad
In short: as §1

NCI-H596 = test system: NCI-H596
In short: as §1

HCC-44 = test system: HCC-44
In short: as §1

A-427 = test system: A-427
In short: as §1

NCI-H1650 = test system: NCI-H1650
In short: as §1

LU99A = test system: LU99A
In short: as §1

PC-14 = test system: PC-14
In short: as §1

COR-L23 = test system: COR-L23
In short: as §1

NCI-H1793 = test system: NCI-H1793
In short: as §1

NCI-H23 = test system: NCI-H23
In short: as §1

SW 900 = test system: SW 900
In short: as §1

LK-2 = test system: LK-2
In short: as §1

NCI-H2228 = test system: NCI-H2228
In short: as §1

H3255 = test system: H3255
In short: as §1

SW 1573 = test system: SW 1573
In short: as §1

LCLC-97TM1 = test system: LCLC-97TM1
In short: as §1

NCI-H727 = test system: NCI-H727
In short: as §1

For CC(=O)O[C@@]12CO[C@@H]1C[C@H](O)[C@@]1(C)C(=O)[C@H](O)C3=C(C)[C@@H](OC(=O)[C@H](O)[C@@H](NC(=O)OC(C)(C)C)c4ccccc4)C[C@@](O)([C@@H](OC(=O)c4ccccc4)[C@H]21)C3(C)C [Docetaxel] + Cc1cc(Nc2cc(N3CCN(C)CC3)nc(Sc3ccc(NC(=O)C4CC4)cc3)n2)n[nH]1 [Tozasertib] (partner 0.1 µM), the relative viability (NCI-H460; first compound 0.0002 µM) was 0.358, the relative viability (NCI-H460; first compound 0.000632 µM) was 0.368 and the relative viability (NCI-H460; first compound 0.002 µM) was 0.0923. The relative viability (NCI-H460; first compound 0.006325 µM) was 0.0604, the relative viability (NCI-H460; first compound 0.02 µM) was 0.0207 and the relative viability (201T; first compound 0.0002 µM) was 0.937. It also gave a relative viability (201T; first compound 0.000632 µM) of 0.751, a relative viability (201T; first compound 0.002 µM) of 0.581 and a relative viability (201T; first compound 0.006325 µM) of 0.453. The relative viability (201T; first compound 0.02 µM) was 0.325, the relative viability (LCLC-103H; first compound 0.0002 µM) was 0.48 and the relative viability (LCLC-103H; first compound 0.000632 µM) was 0.39. The relative viability (LCLC-103H; first compound 0.002 µM) was 0.358, the relative viability (LCLC-103H; first compound 0.006325 µM) was 0.377 and the relative viability (LCLC-103H; first compound 0.02 µM) was 0.296. The relative viability (NCI-H2347; first compound 0.0002 µM) was 0.511, the relative viability (NCI-H2347; first compound 0.000632 µM) was 0.594 and the relative viability (NCI-H2347; first compound 0.002 µM) was 0.441. It also gave a relative viability (NCI-H2347; first compound 0.006325 µM) of 0.293, a relative viability (NCI-H2347; first compound 0.02 µM) of 0.268 and a relative viability (LC-2-ad; first compound 0.0002 µM) of 0.487. It also gave a relative viability (LC-2-ad; first compound 0.000632 µM) of 0.395, a relative viability (LC-2-ad; first compound 0.002 µM) of 0.302 and a relative viability (LC-2-ad; first compound 0.006325 µM) of 0.37. The relative viability (NCI-H596; first compound 0.0002 µM) was 0.838, the relative viability (NCI-H596; first compound 0.000632 µM) was 0.754 and the relative viability (NCI-H596; first compound 0.002 µM) was 0.365. It also gave a relative viability (NCI-H596; first compound 0.006325 µM) of 0.361, a relative viability (NCI-H596; first compound 0.02 µM) of 0.25 and a relative viability (HCC-44; first compound 0.0002 µM) of 0.93. The relative viability (HCC-44; first compound 0.000632 µM) was 0.442, the relative viability (HCC-44; first compound 0.002 µM) was 0.41 and the relative viability (HCC-44; first compound 0.006325 µM) was 0.295. It also gave a relative viability (HCC-44; first compound 0.02 µM) of 0.158, a relative viability (A-427; first compound 0.0002 µM) of 0.176 and a relative viability (A-427; first compound 0.000632 µM) of 0.237. For the same molecule, the relative viability (A-427; first compound 0.002 µM) was 0.193, the relative viability (A-427; first compound 0.006325 µM) was 0.162 and the relative viability (A-427; first compound 0.02 µM) was 0.132. For the same molecule, the relative viability (NCI-H1650; first compound 0.0002 µM) was 0.386, the relative viability (NCI-H1650; first compound 0.000632 µM) was 0.328 and the relative viability (NCI-H1650; first compound 0.006325 µM) was 0.306. For the same molecule, the relative viability (NCI-H1650; first compound 0.02 µM) was 0.168, the relative viability (LU99A; first compound 0.0002 µM) was 0.262 and the relative viability (LU99A; first compound 0.000632 µM) was 0.289. It also gave a relative viability (LU99A; first compound 0.002 µM) of 0.236, a relative viability (LU99A; first compound 0.006325 µM) of 0.307 and a relative viability (LU99A; first compound 0.02 µM) of 0.211. The relative viability (PC-14; first compound 0.0002 µM) was 0.534, the relative viability (PC-14; first compound 0.000632 µM) was 0.489 and the relative viability (PC-14; first compound 0.002 µM) was 0.0877. For the same molecule, the relative viability (PC-14; first compound 0.006325 µM) was 0.0613, the relative viability (PC-14; first compound 0.02 µM) was 0.0312 and the relative viability (COR-L23; first compound 0.0002 µM) was 0.199. It also gave a relative viability (COR-L23; first compound 0.000632 µM) of 0.21, a relative viability (COR-L23; first compound 0.002 µM) of 0.141 and a relative viability (COR-L23; first compound 0.006325 µM) of 0.153. The relative viability (COR-L23; first compound 0.02 µM) was 0.133, the relative viability (NCI-H1793; first compound 0.0002 µM) was 0.372 and the relative viability (NCI-H1793; first compound 0.000632 µM) was 0.285. The relative viability (NCI-H1793; first compound 0.002 µM) was 0.197, the relative viability (NCI-H1793; first compound 0.006325 µM) was 0.195 and the relative viability (NCI-H1793; first compound 0.02 µM) was 0.136. For the same molecule, the relative viability (NCI-H23; first compound 0.0002 µM) was 0.39, the relative viability (NCI-H23; first compound 0.000632 µM) was 0.314 and the relative viability (NCI-H23; first compound 0.002 µM) was 0.195. The relative viability (NCI-H23; first compound 0.006325 µM) was 0.198, the relative viability (NCI-H23; first compound 0.02 µM) was 0.166 and the relative viability (SW 900; first compound 0.0002 µM) was 0.453. The relative viability (SW 900; first compound 0.000632 µM) was 0.296, the relative viability (SW 900; first compound 0.002 µM) was 0.259 and the relative viability (SW 900; first compound 0.006325 µM) was 0.277. It also gave a relative viability (SW 900; first compound 0.02 µM) of 0.173, a relative viability (LK-2; first compound 0.0002 µM) of 0.155 and a relative viability (LK-2; first compound 0.000632 µM) of 0.215. It also gave a relative viability (LK-2; first compound 0.002 µM) of 0.157, a relative viability (LK-2; first compound 0.006325 µM) of 0.188 and a relative viability (LK-2; first compound 0.02 µM) of 0.166. For the same molecule, the relative viability (NCI-H2228; first compound 0.0002 µM) was 0.242, the relative viability (NCI-H2228; first compound 0.000632 µM) was 0.169 and the relative viability (NCI-H2228; first compound 0.002 µM) was 0.127. For the same molecule, the relative viability (NCI-H2228; first compound 0.006325 µM) was 0.168, the relative viability (NCI-H2228; first compound 0.02 µM) was 0.121 and the relative viability (H3255; first compound 0.0002 µM) was 0.83. The relative viability (H3255; first compound 0.000632 µM) was 0.507, the relative viability (H3255; first compound 0.002 µM) was 0.241 and the relative viability (H3255; first compound 0.006325 µM) was 0.264. The relative viability (H3255; first compound 0.02 µM) was 0.236, the relative viability (SW 1573; first compound 0.0002 µM) was 0.24 and the relative viability (SW 1573; first compound 0.000632 µM) was 0.189. For the same molecule, the relative viability (SW 1573; first compound 0.002 µM) was 0.256, the relative viability (SW 1573; first compound 0.02 µM) was 0.199 and the relative viability (LCLC-97TM1; first compound 0.000632 µM) was 0.209. It also gave a relative viability (LCLC-97TM1; first compound 0.002 µM) of 0.191, a relative viability (LCLC-97TM1; first compound 0.006325 µM) of 0.122 and a relative viability (LCLC-97TM1; first compound 0.02 µM) of 0.13. It also gave a relative viability (NCI-H727; first compound 0.0002 µM) of 0.781, a relative viability (NCI-H727; first compound 0.000632 µM) of 0.614 and a relative viability (NCI-H727; first compound 0.002 µM) of 0.611. The relative viability (NCI-H727; first compound 0.006325 µM) was 0.518 and the relative viability (NCI-H727; first compound 0.02 µM) was 0.398.
